Experimental data as given in publication PMC12655637, “Design, Synthesis, and Mechanistic Study of Novel Ciprofloxacin/Thiazole Chalcone Hybrids as Potential Anticancer Agents” (Pharmaceuticals, 2025).
Read-outs that look alike come from different tables or passages of the source.

Experiments:
SNB-19 = assay: NCI-60 screening, one-dose (10 µM) and five-dose, SRB; type: cell-based; conditions: Homo sapiens
U251 = assay: as above; type: cell-based, human; conditions: Homo sapiens, U-251; 10 μM; U251, CNS Cancer; read-out: Growth percentage
A498 = assay: as above; type: cell-based; conditions: Homo sapiens
HL-60(TB) = assay: as above; type: cell-based, human; conditions: Homo sapiens, HL-60, 10 μM; HL-60(TB), Leukemia; read-out: Growth percentage
NCI/ADR-RES = assay: as above; type: cell-based, human; conditions: Homo sapiens, 10 μM, Ovarian Cancer, read-out: Growth percentage
NCI-H522 = assay: as above; type: cell-based, human; conditions: Homo sapiens; 10 μM; NCI-H522, Non-Small-Cell Lung Cancer; read-out: Growth percentage
MOLT-4 = assay: as above; type: cell-based, human; conditions: Homo sapiens; 10 μM; MOLT-4, Leukemia; read-out: Growth percentage
OVCAR-5 = assay: as above; type: cell-based, human; conditions: 10 μM; OVCAR-5, Ovarian Cancer
[1] = test system: 60 human cancer cell lines; assay: NCI-60 screening, full panel (mean growth, MID a, ranges over all lines); conditions: Homo sapiens, read-out: Mean growth percentage
Method: The screening was performed in accordance with the protocols set forth by the Drug Evaluation Department of the National Cancer Institute (NCI), Bethesda, USA, for in vitro anticancer efficacy at a single concentration of 10 µM against a panel of 60 cancer cell lines derived from nine distinct organs (https://dctd.cancer.gov/data-tools-biospecimens/data (accessed on 15 March 2023 and 6 January 2024)) [37].
The log10 GI50, log10 TGI, and log10 LC50 values were subsequently calculated as the averages of the log10 values of the respective individual GI50, TGI, and LC50 measurements. Negative numbers signified the most sensitive cell lines.
One way to measure a compound’s selectivity is to divide its subpanel MID^b (in μM) by the MID^a (in μM), which is the average sensitivity of all cell lines to the test agent.
At the National Cancer Institute (NCI) in Bethesda, USA, researchers examined the anticancer potential of the target compounds under investigation using nine panels of sixty different cell lines obtained from nine different cancers that were housed in the NCI library. Following the protocols laid out by the National Cancer Institute (https://dctd.cancer.gov/data-tools-biospecimens/data (accessed on 15 March 2023 and 6 January 2024)), the screening procedures were carried out [37]. The anticancer screening was carried out at a single dose of 10^−5 M; the results obtained were expressed as growth inhibition (%).
The anti-cancer potential of the tested compounds was evaluated at the National cancer institute (NCI), Bethesda, USA, against 9 panels of 60 various cell lines derived from nine human tumours available usually at NCI library. The procedures for the screening were described in details in NCI website (dttp://www.dtp.nci.nih.gov.) and were done according to NCI protocols. The anticancer screening was carried out at single dose of 10^-5 M. The results obtained as growth inhibition (%).
Cell lines were grown in Roswell Park Memorial Institute medium (RPMI) with 5% fetal bovine serum and 2% μM L-glutamine. Cancer cells are inoculated into 96 well microtiter plates in 100 μL at plating densities ranging from 5000 to 40,000 cells/well depending on the doubling time of individual cell lines. Then microtiter plates are incubated at 37 °C, 5% CO2, 95% air and 100% relative humidity for 24 h prior to the addition of the tested compounds. After 24 h, two plates of each cell line are fixed in situ with trichloroacetic acid (TCA). The tested compounds were dissolved in dimethyl sulfoxide (DMSO) and stored in the freezer prior to use. An aliquot of frozen drug concentrate is diluted to the desired concentration with complete medium containing 50 μg/mL gentamicin.

HOP-62 = assay: NCI-60 screening, one-dose (10 µM) and five-dose, SRB; type: cell-based, human; conditions: Homo sapiens, HOP-62, 10 μM; HOP-62, Non-Small-Cell Lung Cancer; read-out: Growth percentage
MDA-MB-435 = assay: as above; type: cell-based; conditions: Homo sapiens, MDA-MB-435, read-out: Growth percentage, 10 μM; MDA-MB-435, Melanoma
SF-539 = assay: as above; type: cell-based, human; conditions: Homo sapiens, SF-539, 10 μM; SF-539, CNS Cancer; read-out: Growth percentage
SNB-75 = assay: as above; type: cell-based, human; conditions: Homo sapiens; 10 μM; SNB-75, CNS Cancer; read-out: Growth percentage
OVCAR-3 = assay: as above; type: cell-based; conditions: Homo sapiens; 10 μM; OVCAR-3, Ovarian Cancer; read-out: Growth percentage
M14 = assay: as above; type: cell-based, human; conditions: Homo sapiens; 10 μM; M14, Melanoma; read-out: Growth percentage
OVCAR-8 = assay: as above; type: cell-based, human; conditions: Homo sapiens; 10 μM; OVCAR-8, Ovarian Cancer; read-out: Growth percentage
SK-MEL-5 = assay: as above; type: cell-based, human; conditions: Homo sapiens; 10 μM; SK-MEL-5, Melanoma; read-out: Growth percentage
HT29 = assay: as above; type: cell-based, human; conditions: Homo sapiens, HT-29; 10 μM; HT29, Colon Cancer; read-out: Growth percentage
T-47D = assay: as above; type: cell-based, human; conditions: 10 μM, Breast Cancer
UACC-62 = assay: as above; type: cell-based; conditions: Homo sapiens
SK-OV-3 = assay: as above; type: cell-based, human; conditions: Homo sapiens; 10 μM; SK-OV-3, Ovarian Cancer; read-out: Growth percentage
HCT-15 = assay: as above; type: cell-based, human; conditions: Homo sapiens; 10 μM; HCT-15, Colon Cancer; read-out: Growth percentage
BT-549 = assay: as above; type: cell-based; conditions: Homo sapiens
A549/ATCC = assay: as above; type: cell-based, human; conditions: Homo sapiens, 10 μM, Non-Small-Cell Lung Cancer, read-out: Growth percentage
PC-3 = assay: as above; type: cell-based, human; conditions: Homo sapiens; 10 μM; PC-3, Prostate Cancer; read-out: Growth percentage
LOX IMVI = assay: as above; type: cell-based, human; conditions: Homo sapiens, 10 μM, Melanoma, read-out: Growth percentage
SK-MEL-28 = assay: as above; type: cell-based, human; conditions: Homo sapiens; 10 μM; SK-MEL-28, Melanoma; read-out: Growth percentage
[2] = A498, 10 μM, A498, Renal Cancer, read-out: Growth percentage
[3] = 10 μM, UACC-62, Melanoma, read-out: Growth percentage
[4] = 10 μM, BT-549, Breast Cancer, read-out: Growth percentage
[5] = 10 μM, SNB-19, CNS Cancer, read-out: Growth percentage

Cc1nc(SCC(=O)N2CCN(c3cc4c(cc3F)c(=O)c(C(=O)O)cn4C3CC3)CC2)sc1C(=O)/C=C/c1ccc(Cl)cc1 [Compound 4c, (E)-7-(4-(2-((5-(3-(4-Chlorophenyl)acryloyl)-4-methylthiazol-2-yl)thio)acetyl)piperazin-1-yl)-1-cyclopropyl-6-fluoro-4-oxo-1,4-dihydroquinoline-3-carboxylic Acid]
activity at 10 µM (SNB-19; SNB-19, read-out: Growth percentage): 100% | activity at 10 µM (U251): 111% | activity at 10 µM (A498; [2]): 119% | activity at 10 µM (HL-60(TB)): 92.9% | activity at 10 µM (NCI/ADR-RES): 98.9% | activity at 10 µM (NCI-H522): 95.9% | activity at 10 µM (MOLT-4): 103% | Growth percentage (OVCAR-5): 100.3% | activity at 10 µM [1]: 103% | activity at 10 µM (HOP-62): 122% | activity at 10 µM (MDA-MB-435): 102% | activity at 10 µM (SF-539): 97.7% | activity at 10 µM (SNB-75): 95.6% | activity at 10 µM (OVCAR-3): 188% | activity at 10 µM (M14): 98.7% | activity at 10 µM (OVCAR-8): 76.3% | activity at 10 µM (SK-MEL-5): 100% | activity at 10 µM (HT29): 108% | Growth percentage (T-47D): 116.3% | activity at 10 µM (UACC-62; [3]): 94.9% | activity at 10 µM (SK-OV-3): 129% | activity at 10 µM (HCT-15): 102% | activity at 10 µM (BT-549; [4]): 85.9% | activity at 10 µM (A549/ATCC): 115% | activity at 10 µM (PC-3): 100% | activity at 10 µM (LOX IMVI): 80.9% | activity at 10 µM (SK-MEL-28): 100%

Cc1nc(SCC(=O)N2CCN(c3cc4c(cc3F)c(=O)c(C(=O)O)cn4C3CC3)CC2)sc1C(=O)/C=C/c1ccc(F)cc1 [Compound 4e, (E)-1-Cyclopropyl-6-fluoro-7-(4-(2-((5-(3-(4-fluorophenyl)acryloyl)-4-methylthiazol-2-yl)thio)acetyl)piperazin-1-yl)-4-oxo-1,4-dihydroquinoline-3-carboxylic Acid]
activity at 10 µM (SNB-19; [5]): 101% | activity at 10 µM (U251): 114% | activity at 10 µM (A498; A498, read-out: Growth percentage): 106% | activity at 10 µM (HL-60(TB)): 107% | activity at 10 µM (NCI/ADR-RES): 104% | activity at 10 µM (NCI-H522): 98.2% | activity at 10 µM (MOLT-4): 105% | Growth percentage (OVCAR-5): 119.2% | activity at 10 µM [1]: 100% | activity at 10 µM (HOP-62): 108% | activity at 10 µM (MDA-MB-435): 104% | activity at 10 µM (SF-539): 99% | activity at 10 µM (SNB-75): 103% | activity at 10 µM (OVCAR-3): 116% | activity at 10 µM (M14): 97.8% | activity at 10 µM (OVCAR-8): 105% | activity at 10 µM (SK-MEL-5): 99.9% | activity at 10 µM (HT29): 115% | Growth percentage (T-47D): 95.6% | activity at 10 µM (UACC-62; [3]): 99.6% | activity at 10 µM (SK-OV-3): 114% | activity at 10 µM (HCT-15): 96.8% | activity at 10 µM (BT-549; [4]): 102% | activity at 10 µM (A549/ATCC): 104% | activity at 10 µM (PC-3): 96.6% | activity at 10 µM (LOX IMVI): 91.2% | activity at 10 µM (SK-MEL-28): 116%

Cc1nc(SCC(=O)N2CCN(c3cc4c(cc3F)c(=O)c(C(=O)O)cn4C3CC3)CC2)sc1C(=O)/C=C/c1ccc(Br)cc1 [Compound 4f, (E)-7-(4-(2-((5-(3-(4-Bromophenyl)acryloyl)-4-methylthiazol-2-yl)thio)acetyl)piperazin-1-yl)-1-cyclopropyl-6-fluoro-4-oxo-1,4-dihydroquinoline-3-carboxylic Acid]
activity at 10 µM (SNB-19; [5]): 93.8% | activity at 10 µM (U251): 98.4% | activity at 10 µM (A498; [2]): 114% | activity at 10 µM (HL-60(TB)): 83.3% | activity at 10 µM (NCI/ADR-RES): 107% | activity at 10 µM (NCI-H522): 105% | activity at 10 µM (MOLT-4): 96.2% | Growth percentage (OVCAR-5): 110.6% | activity at 10 µM [1]: 102% | activity at 10 µM (HOP-62): 94.3% | activity at 10 µM (MDA-MB-435): 107% | activity at 10 µM (SF-539): 89.9% | activity at 10 µM (SNB-75): 65.7% | activity at 10 µM (OVCAR-3): 170% | activity at 10 µM (M14): 108% | activity at 10 µM (OVCAR-8): 75% | activity at 10 µM (SK-MEL-5): 101% | activity at 10 µM (HT29): 117% | Growth percentage (T-47D): 89.3% | activity at 10 µM (UACC-62; [3]): 105% | activity at 10 µM (SK-OV-3): 110% | activity at 10 µM (HCT-15): 106% | activity at 10 µM (BT-549; BT-549, read-out: Growth percentage): 107% | activity at 10 µM (A549/ATCC): 107% | activity at 10 µM (PC-3): 102% | activity at 10 µM (LOX IMVI): 90.5% | activity at 10 µM (SK-MEL-28): 114%

Cc1nc(SCC(=O)N2CCN(c3cc4c(cc3F)c(=O)c(C(=O)O)cn4C3CC3)CC2)sc1C(=O)/C=C/c1cccc([N+](=O)[O-])c1 [Compound 4g, (E)-1-Cyclopropyl-6-fluoro-7-(4-(2-((4-methyl-5-(3-(3-nitrophenyl)acryloyl)thiazol-2-yl)thio)acetyl)piperazin-1-yl)-4-oxo-1,4-dihydroquinoline-3-carboxylic Acid]
activity at 10 µM (SNB-19; [5]): 87.7% | activity at 10 µM (U251): 50.7% | activity at 10 µM (A498; [2]): 129% | activity at 10 µM (HL-60(TB)): 80.5% | activity at 10 µM (NCI/ADR-RES): 102% | activity at 10 µM (NCI-H522): 72.3% | activity at 10 µM (MOLT-4): 86.4% | Growth percentage (OVCAR-5): 119.9% | activity at 10 µM [1]: 80% | activity at 10 µM (HOP-62): 94.5% | activity at 10 µM (MDA-MB-435): 71.9% | activity at 10 µM (SF-539): 64.5% | activity at 10 µM (SNB-75): 95.7% | activity at 10 µM (OVCAR-3): 163% | activity at 10 µM (M14): 83.3% | activity at 10 µM (OVCAR-8): 69.2% | activity at 10 µM (SK-MEL-5): 81.7% | activity at 10 µM (HT29): 37.2% | Growth percentage (T-47D): 84.1% | activity at 10 µM (UACC-62; UACC-62, read-out: Growth percentage): 71.9% | activity at 10 µM (SK-OV-3): 121% | activity at 10 µM (HCT-15): 71.7% | activity at 10 µM (BT-549; [4]): 66.9% | activity at 10 µM (A549/ATCC): 90.3% | activity at 10 µM (PC-3): 112% | activity at 10 µM (LOX IMVI): 34.2% | activity at 10 µM (SK-MEL-28): 80.8%
